From patent publication US20250170248A1, “SMARCA DEGRADERS AND USES THEREOF” (Kymera Therapeutics, Inc., priority 2021, published 2025)

Experiments:
Format in all cases: cell-based
SMARCA2 [1] = target: T1, SMARCA2 (Homo sapiens, UniProt P51531); assay: MSD SMARCA2 degradation in A549 cell line; conditions: for Dmax: A549, A549 cells; for Dmax / DC50: 24 h; for DC50 / SMARCA2 MSD A549 degradation 24 h: Average Dmax %: A549 cells; for DC50: read-out: SMARCA2 MSD A549 degradation 24 h: Average external-Abs DC50
In short: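 SMARCA2 protein remaining after 24 h exposure of A549 cells (top concentration 1000 nM, 3-fold dilutions) was measured by MSD electrochemiluminescence immunoassay of cell lysates. Results are given as binned DC50 and maximal degradation (Dmax) codes.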

SMARCA4 = target: T2, SMARCA4 (Homo sapiens, UniProt P51532); assay: SMARCA4 Western blot degradation in MV4-11 cells; conditions: for Dmax: MV4-11, MV4-11 cells, read-out: SMARCA4 MSD MV411 degradation 24 h: average Dmax %; for Dmax / DC50: 24 h; for DC50 / SMARCA4 MSD MV411 degradation 24 h: average Dmax %: MV4-11 cells; for DC50: read-out: SMARCA4 MSD MV411 degradation 24 h: Mean external-Abs DC50
T2 construct: SMARCA2/SMARCA4 protein degradation selectivity in MV4-11 cells; endogenous in cells; host or cells: MV4-11
In short: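 Protein levels quantified by LI-COR Western blot (beta-actin loading control) in RIPA lysates of MV4-11 cells after 24 h compound exposure. Degradation reported as DC50, Dmax % at 24 h and SMARCA2 vs SMARCA4 selectivity, each binned into letter codes.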

SMARCA2 [2] = target: T1, SMARCA2; assay: SMARCA2 Western blot degradation in MV4-11 cells; design: SMARCA2/SMARCA4 protein degradation selectivity in MV4-11 cells; endogenous in cells; host or cells: MV4-11; conditions: for Dmax: MV4-11, MV4-11 cells, read-out: SMARCA2 MSD MV411 degradation 24 h: average Dmax %; for Dmax / DC50 / SMARCA2 MSD MV411 degradation 24 h: average Dmax %: 24 h; for DC50 / Selectivity in MV411 / SMARCA2 MSD MV411 degradation 24 h: average Dmax %: MV4-11 cells; for DC50: read-out: SMARCA2 MSD MV411 degradation 24 h: Mean external-Abs DC50; for Selectivity in MV411: SMARCA2/4 selectivity

T1 sequence (P51531 whole entry): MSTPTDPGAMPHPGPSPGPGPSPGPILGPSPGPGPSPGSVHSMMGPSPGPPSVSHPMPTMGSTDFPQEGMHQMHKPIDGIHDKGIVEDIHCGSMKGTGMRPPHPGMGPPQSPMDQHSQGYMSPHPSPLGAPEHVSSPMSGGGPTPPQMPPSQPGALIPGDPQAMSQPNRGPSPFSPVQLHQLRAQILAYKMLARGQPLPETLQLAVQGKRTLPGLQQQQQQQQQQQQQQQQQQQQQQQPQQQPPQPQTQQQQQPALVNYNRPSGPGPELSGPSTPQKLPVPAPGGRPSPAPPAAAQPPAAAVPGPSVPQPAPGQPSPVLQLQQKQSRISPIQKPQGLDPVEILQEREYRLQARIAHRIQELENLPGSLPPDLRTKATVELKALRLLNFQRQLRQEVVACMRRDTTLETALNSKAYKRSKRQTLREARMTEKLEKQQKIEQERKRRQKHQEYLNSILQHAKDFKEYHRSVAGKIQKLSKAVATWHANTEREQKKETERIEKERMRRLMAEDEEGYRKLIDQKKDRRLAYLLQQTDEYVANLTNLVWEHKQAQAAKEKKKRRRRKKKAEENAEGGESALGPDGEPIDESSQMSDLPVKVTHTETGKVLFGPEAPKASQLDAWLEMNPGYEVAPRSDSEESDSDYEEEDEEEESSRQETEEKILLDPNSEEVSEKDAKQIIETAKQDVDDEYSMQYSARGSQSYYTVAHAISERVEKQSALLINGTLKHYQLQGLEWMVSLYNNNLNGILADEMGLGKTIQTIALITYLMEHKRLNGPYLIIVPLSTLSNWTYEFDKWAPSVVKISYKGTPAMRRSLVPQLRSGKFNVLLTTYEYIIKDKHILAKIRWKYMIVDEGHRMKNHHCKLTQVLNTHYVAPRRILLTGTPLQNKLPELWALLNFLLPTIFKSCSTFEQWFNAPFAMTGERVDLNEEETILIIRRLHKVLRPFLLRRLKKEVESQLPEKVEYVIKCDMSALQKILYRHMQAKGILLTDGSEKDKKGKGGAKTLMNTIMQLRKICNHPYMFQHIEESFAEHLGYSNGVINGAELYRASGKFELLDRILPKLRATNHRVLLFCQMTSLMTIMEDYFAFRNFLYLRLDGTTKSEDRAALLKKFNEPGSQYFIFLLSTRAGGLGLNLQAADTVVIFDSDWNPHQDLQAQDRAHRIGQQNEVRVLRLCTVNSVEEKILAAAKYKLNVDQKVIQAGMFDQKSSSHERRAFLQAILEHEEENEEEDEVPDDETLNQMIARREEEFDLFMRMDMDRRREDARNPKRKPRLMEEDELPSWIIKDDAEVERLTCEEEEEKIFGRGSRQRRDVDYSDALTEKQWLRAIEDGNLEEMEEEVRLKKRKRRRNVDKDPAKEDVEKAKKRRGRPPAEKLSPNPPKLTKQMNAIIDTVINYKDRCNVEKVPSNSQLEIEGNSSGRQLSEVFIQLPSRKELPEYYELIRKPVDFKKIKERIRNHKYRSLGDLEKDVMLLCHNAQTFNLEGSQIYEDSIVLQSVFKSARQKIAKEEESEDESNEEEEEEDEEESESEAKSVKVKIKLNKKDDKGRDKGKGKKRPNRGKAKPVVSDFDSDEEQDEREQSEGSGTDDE
T2 sequence (P51532 whole entry): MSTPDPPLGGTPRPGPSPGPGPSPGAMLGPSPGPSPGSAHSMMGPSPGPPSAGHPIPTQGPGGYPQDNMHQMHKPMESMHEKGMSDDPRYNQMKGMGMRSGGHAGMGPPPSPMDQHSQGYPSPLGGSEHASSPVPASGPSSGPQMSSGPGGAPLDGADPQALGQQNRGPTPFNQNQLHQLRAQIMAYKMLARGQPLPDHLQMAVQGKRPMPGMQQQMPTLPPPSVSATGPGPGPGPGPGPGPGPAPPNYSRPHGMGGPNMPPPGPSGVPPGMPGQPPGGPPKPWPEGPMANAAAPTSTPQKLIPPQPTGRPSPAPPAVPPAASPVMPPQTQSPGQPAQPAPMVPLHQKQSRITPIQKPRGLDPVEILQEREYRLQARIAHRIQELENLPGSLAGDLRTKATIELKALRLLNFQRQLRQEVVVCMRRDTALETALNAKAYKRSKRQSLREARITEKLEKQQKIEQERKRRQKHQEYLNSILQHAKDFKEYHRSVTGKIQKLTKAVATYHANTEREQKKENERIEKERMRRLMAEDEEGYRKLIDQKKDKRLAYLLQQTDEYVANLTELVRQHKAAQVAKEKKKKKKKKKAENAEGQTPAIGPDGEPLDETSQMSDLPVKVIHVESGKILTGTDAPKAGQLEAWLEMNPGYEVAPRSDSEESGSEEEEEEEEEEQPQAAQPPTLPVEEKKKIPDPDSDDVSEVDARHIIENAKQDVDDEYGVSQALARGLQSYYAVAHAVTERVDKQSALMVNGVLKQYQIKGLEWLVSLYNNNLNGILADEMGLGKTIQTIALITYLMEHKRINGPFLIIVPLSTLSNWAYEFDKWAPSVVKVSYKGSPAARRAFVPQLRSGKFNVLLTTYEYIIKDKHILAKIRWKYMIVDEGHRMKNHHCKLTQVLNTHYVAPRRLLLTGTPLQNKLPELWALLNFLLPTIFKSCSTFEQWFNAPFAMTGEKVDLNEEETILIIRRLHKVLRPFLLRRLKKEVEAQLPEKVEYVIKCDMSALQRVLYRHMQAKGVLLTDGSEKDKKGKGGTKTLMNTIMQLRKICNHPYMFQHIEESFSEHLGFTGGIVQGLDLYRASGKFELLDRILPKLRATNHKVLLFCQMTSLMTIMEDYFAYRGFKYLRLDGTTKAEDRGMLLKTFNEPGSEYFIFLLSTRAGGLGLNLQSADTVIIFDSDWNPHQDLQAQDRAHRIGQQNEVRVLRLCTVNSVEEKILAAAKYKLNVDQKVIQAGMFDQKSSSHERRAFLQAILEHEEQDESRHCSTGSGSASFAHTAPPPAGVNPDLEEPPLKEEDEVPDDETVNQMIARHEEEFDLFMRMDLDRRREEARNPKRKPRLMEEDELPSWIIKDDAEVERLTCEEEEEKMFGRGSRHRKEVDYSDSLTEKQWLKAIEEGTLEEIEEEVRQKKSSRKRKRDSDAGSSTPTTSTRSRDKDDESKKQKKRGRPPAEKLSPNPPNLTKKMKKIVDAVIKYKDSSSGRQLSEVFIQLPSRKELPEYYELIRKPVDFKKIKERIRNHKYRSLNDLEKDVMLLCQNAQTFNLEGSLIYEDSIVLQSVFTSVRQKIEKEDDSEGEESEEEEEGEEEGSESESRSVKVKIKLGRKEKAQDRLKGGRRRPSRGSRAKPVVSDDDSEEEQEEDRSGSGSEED

Row | Structure (SMILES) | Dmax (SMARCA2 [1]) [%] | DC50 (SMARCA2 [1]) [nM] | Dmax (SMARCA4) [%] | DC50 (SMARCA4) [nM] | Dmax (SMARCA2 [2]) [%] | DC50 (SMARCA2 [2]) [nM] | Selectivity in MV411 (SMARCA2 [2]) | SMARCA2 MSD A549 degradation 24 h: Average Dmax % (SMARCA2 [1]) | SMARCA4 MSD MV411 degradation 24 h: average Dmax % (SMARCA4) | SMARCA2 MSD MV411 degradation 24 h: average Dmax % (SMARCA2 [2])
1 | C#Cc1ccc([C@H](C)NC(=O)[C@@H]2C[C@@H](O)CN2C(=O)[C@H](c2cc(OCCN3CCN4c5cc(-c6ccccc6O)nnc5NC[C@H]4C3)no2)C(C)C)cc1 (single isomer, unassigned) [I-272] | 50 to 70 | > 100 | < 50 | > 100 | 50 to 70 | > 100 | C (C (10-100 fold)) | – | – | –
2 | C#Cc1ccc([C@H](C)NC(=O)[C@@H]2C[C@@H](O)CN2C(=O)[C@@H](c2cc(OCCN3CCN4c5cc(-c6ccccc6O)nnc5NC[C@H]4C3)no2)C(C)C)cc1 (single isomer, unassigned) [I-273] | > 90 | > 100 | 50 to 70 | > 100 | > 90 | 1 to 10 | C (C (10-100 fold)) | – | – | –
3 | C#Cc1ccc(CNC(=O)[C@@H]2C[C@@H](O)CN2C(=O)[C@@H](NC(=O)[C@H]2CC3(CC[C@H](N4CCN(c5cnc(N6CCc7[nH]c8nnc(-c9ccccc9O)cc8c7[C@H]6C)nc5)CC4)CC3)C2)C(C)(C)C)cc1 (single isomer, unassigned) [I-285] | > 90 | 10 to 50 | 70 to 90 | > 100 | 70 to 90 | 10 to 100 | C (C (10-100 fold)) | – | – | –
4 | C#Cc1cnc(CNC(=O)[C@@H]2C[C@@H](O)CN2C(=O)[C@@H](NC(=O)[C@H]2CCC3(CC2)C[C@H](N2CCC(c4cnc(N5CCN6c7cc(-c8ccccc8O)nnc7NC[C@H]6C5)nc4)CC2)C3)C(C)(C)C)c(OC)c1 (single isomer, unassigned) [I-286] | 50 to 70 | > 100 | < 50 | > 100 | < 50 | > 100 | D (D (<10 fold)) | – | – | –
5 | C#Cc1ccc(CNC(=O)[C@@H]2C[C@@H](O)CN2C(=O)[C@@H](NC(=O)[C@H]2CCC3(CC2)C[C@H](N2CCN(c4cnc(N5CCN6c7cc(-c8ccccc8O)nnc7NC[C@H]6C5)nc4)CC2)C3)C(C)(C)CCO)cc1 (single isomer, unassigned) [I-287] | > 90 | < 10 | 50 to 70 | > 100 | 70 to 90 | 1 to 10 | A (A (>500 fold)) | – | – | –
6 | C#Cc1cnc(CNC(=O)[C@@H]2C[C@@H](O)CN2C(=O)[C@@H](NC(=O)[C@H]2CCC3(CC2)C[C@H](N2CCC(c4cnc(N5CCN6c7cc(-c8ccccc8O)nnc7NC[C@H]6C5)nc4)CC2)C3)C(C)(C)C)c(OC)c1 (single isomer, unassigned) [I-298] | – | 10 to 50 | – | > 100 | – | > 100 | D (D (<10 fold)) | B (B (>70-90% degradation)) | D (D (<50% degradation)) | D (D (<50% degradation))
7 | C#Cc1ccc(CNC(=O)[C@@H]2C[C@@H](O)CN2C(=O)[C@@H](NC(=O)[C@H]2CCC3(CC2)C[C@H](N2CCN(c4cnc(N5CCN6c7cc(-c8ccccc8O)nnc7NC[C@H]6C5)nc4)CC2)C3)C(C)(C)CCO)cc1 (single isomer, unassigned) [I-299] | – | < 10 | – | > 100 | – | 1 to 10 | C (C (10-100 fold)) | A (A (>90% degradation)) | C (C (50-70% degradation)) | B (B (>70-90% degradation))
8 | C#Cc1ccc(CNC(=O)[C@@H]2C[C@@H](O)CN2C(=O)[C@@H](NC(=O)[C@H]2CC3(CC[C@H](N4CCN(c5cnc(N6CCc7[nH]c8nnc(-c9ccccc9O)cc8c7[C@H]6C)nc5)CC4)CC3)C2)C(C)(C)C)cc1 (single isomer, unassigned) [I-300] | – | > 100 | – | > 100 | – | 10 to 100 | C (C (10-100 fold)) | A (A (>90% degradation)) | D (D (<50% degradation)) | B (B (>70-90% degradation))
